Test system: ICR strain mice
Conditions: mouse, in vivo, po, 300 mg/kg
Method: Six male ICR strain mice weighing 20 g for each group were administered orally with 300 mg/kg of the test drug (all the test drugs were used in the form of the suspension in 0.5% CMC). Two hours after administration, 5 mm of the tail from the top was cut under pentobarbital anesthesia, and the bleeding was observed by tapping at the cutting site with a filter paper every 15 seconds. The time when the bleeding was observed stopping for one minute is defined as the arrest point of bleeding, and the duration required from the time when the cutting was done to the arrest point of bleeding is defined as the bleeding time. The observation was carried out up to 1200 seconds. Ticlopidine was used as a positive control.

Bleeding time ± standard error	SMILES
417.5 ± 171.22 s	CC(C=C1C(=O)N(c2ccccc2)C1c1ccccc1)=NOCC(=O)O (centres unmarked) [Compound 1, 3-(2-carboxymethoxyiminopropylidene)-1,4-diphenyl-2-azetidinone]
1127.5 ± 72.50 (note) seconds	Clc1ccccc1CN1CCc2sccc2C1 [ticlopidine]

Reference: EP0264232A1, “2-Azetidinone derivatives” (TAISHO PHARMACEUTICAL CO. LTD, priority 1986, dated 1988)
